Here are results for twelve molecules from US20250000847A1, “TREATMENT OF NEURODEGENERATIVE DISEASES WITH HDAC INHIBITORS” (CASE WESTERN RESERVE UNIVERSITY, priority 2021, published 2025).

One may read the IC50 as the midpoint of a concentration-inhibition curve.

Where two headings read alike, the source gives them in different places.

One test concerns HDAC. The following applies: cell-free assay where stated; read-out: IC50 (pan-HDAC); cited from earlier work.
In the next test the test system is HDACs 2, 3, 6, and 10. Conditions: cited from earlier work.
A further test addresses HDAC3 (Homo sapiens, UniProt O15379). Conditions: cell-free where stated; cited from earlier work.
The next test concerns the target HDAC2 (Homo sapiens, UniProt Q92769). Conditions: cell-free assays where stated; cited from earlier work.
Another test addresses HDAC1 (Homo sapiens, UniProt Q13547). Conditions: cell-free assays where stated; cited from earlier work.
For another test, the target named is HDAC6 (Homo sapiens, UniProt Q9UBN7). Conditions: cell-free assays; cited from earlier work.
Chain of HDAC6 (Q9UBN7 whole entry, species assumed): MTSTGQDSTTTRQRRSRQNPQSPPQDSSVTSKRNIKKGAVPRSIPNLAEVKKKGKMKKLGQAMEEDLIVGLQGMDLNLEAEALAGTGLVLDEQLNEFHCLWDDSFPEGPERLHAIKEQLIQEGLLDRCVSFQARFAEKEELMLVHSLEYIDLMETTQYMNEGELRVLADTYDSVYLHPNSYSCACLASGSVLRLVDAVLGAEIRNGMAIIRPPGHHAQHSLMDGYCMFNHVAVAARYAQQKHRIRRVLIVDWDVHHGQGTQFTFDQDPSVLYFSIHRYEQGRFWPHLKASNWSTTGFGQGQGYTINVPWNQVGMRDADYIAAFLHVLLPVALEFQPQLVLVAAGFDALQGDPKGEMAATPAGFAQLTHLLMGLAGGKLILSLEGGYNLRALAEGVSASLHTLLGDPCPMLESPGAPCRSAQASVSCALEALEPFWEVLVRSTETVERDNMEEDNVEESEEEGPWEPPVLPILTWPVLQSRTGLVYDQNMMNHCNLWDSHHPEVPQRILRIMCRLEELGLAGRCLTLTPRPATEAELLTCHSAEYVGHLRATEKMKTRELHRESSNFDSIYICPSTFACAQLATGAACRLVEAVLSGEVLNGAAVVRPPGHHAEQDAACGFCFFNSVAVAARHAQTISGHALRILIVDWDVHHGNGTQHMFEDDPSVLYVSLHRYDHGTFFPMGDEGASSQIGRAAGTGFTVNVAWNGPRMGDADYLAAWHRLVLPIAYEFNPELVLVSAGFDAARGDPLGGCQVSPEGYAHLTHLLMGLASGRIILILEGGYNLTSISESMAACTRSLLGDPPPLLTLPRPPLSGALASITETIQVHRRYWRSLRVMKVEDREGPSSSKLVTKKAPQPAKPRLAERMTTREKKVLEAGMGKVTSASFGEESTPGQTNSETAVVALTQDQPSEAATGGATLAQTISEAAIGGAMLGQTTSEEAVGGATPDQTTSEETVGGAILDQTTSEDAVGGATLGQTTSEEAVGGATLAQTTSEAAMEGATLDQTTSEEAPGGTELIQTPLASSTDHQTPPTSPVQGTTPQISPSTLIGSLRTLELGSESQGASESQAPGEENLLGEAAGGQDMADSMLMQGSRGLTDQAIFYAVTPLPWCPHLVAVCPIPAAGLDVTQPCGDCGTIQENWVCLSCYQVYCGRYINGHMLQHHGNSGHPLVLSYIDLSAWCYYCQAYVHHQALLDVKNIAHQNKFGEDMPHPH
In a further test the test system is maize HD1A. The following applies: cell-free assays; cited from earlier work.
The next test deals with maize HD1B. The following applies: cell-free assays; cited from earlier work.
For the next test, the system named is maize HD2. Conditions: cell-free assays; cited from earlier work.
For test [1], the target named is class III isoenzyme SIRT I (Homo sapiens, UniProt Q96EB6). The following applies: cited from earlier work.
Chain of class III isoenzyme SIRT I (Q96EB6 whole entry): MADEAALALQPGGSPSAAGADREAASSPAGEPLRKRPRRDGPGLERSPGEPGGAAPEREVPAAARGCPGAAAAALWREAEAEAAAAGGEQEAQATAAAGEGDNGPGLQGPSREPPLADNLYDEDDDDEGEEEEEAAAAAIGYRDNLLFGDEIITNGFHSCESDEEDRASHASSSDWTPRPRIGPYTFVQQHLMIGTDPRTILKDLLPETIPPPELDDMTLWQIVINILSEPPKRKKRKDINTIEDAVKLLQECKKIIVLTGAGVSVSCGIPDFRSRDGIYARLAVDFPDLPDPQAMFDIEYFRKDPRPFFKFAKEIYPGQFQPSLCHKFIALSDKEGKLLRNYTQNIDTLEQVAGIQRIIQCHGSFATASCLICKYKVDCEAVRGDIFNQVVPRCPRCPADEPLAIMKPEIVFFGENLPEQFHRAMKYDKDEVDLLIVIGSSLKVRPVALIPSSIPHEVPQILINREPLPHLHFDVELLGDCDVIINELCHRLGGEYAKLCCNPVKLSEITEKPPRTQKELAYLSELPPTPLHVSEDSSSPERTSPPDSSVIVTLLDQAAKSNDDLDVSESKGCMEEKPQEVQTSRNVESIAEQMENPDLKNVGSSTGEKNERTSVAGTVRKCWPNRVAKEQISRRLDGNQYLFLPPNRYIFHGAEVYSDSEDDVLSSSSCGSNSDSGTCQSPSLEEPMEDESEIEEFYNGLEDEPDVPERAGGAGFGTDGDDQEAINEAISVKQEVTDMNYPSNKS
A further test relates to HDACs 6 and 7. Conditions: cited from earlier work.
A further test deals with HDACs 2, 4, 10, and 11. The following applies: cited from earlier work.
Test [2] has as its system HDAC4/5/7/9/11, Sirtuin1, and Sirtuin2. Conditions: cited from earlier work.
A further test has as its target HDAC8 (Homo sapiens, UniProt Q9BY41). Conditions: cited from earlier work.
For a further test, the system named is acetylated H4 and H3. Conditions: cited from earlier work.
Another test deals with CCL5. Kind of test: CCL5 secretion by reactive astrocytes (ELISA). Conditions: FIG. 4. Format: cell-based, mouse. Here is the method:
Astrocytes were plated and treated exactly as described for the antigen cross presentation assay. However, after 24 hrs of incubation with either reactive astrocyte driving factors alone or with HDAC inhibitor treatment, conditioned media from the cells was collected and assayed for CCL5 using a commercially available colorimetric ELISA kit (RnD Cat #: DY478-05). Data was then fit to a standard four parameter logistic (4PL) curve and presented as pg/mL/cell, normalized to reactive astrocytes plus DMSO vehicle (FIG. 4).
Media was collected from mouse P2 primary astrocytes that had been cultured for 24 hrs in the presence of cytokines with and without HDAC3 inhibitors and compared to media from astrocytes not treated with cytokines. The concentration of CCL5, a cytokine secreted by reactive astrocytes, was measured in each of the respective media conditions based on the direct adsorption of CCL5 to a pre-coated capture antibody on the ELISA assay plate. The ELISA sandwich assay was performed according to the manufacturer's instructions (DY478-05, R&D Systems). Relative CCL5 concentration were measured based on absorbance measured by a plate reader.

Test [3] concerns MHC Class I (H-2Kb) bound to OVA257-264 on reactive astrocytes. The test can be described thus: OVA257-264 peptide antigen cross presentation assay. Format: cell-based, mouse. Conditions: for treated cells H-2 kB-OVA positive DRAs: reactive astrocytes without inhibitor more than about 80%. Here is the method:
To test whether HDAC inhibitors block the ability of reactive astrocytes to cross present exogenous antigen, cells were plated down in 96-well plates at a density of about 500 cells/mm^2. Cells were then treated with HDAC inhibitors for 1 hr prior to the addition of reactive astrocyte driving factors as the concentrations stated above. Cells were incubated for 24 hrs, after which, media was washed out and replaced with media containing the peptide fragment ovalbumin 257-264 (OVA257-264). Cells were then incubated overnight, and then stained for 2 hrs at 37° C. with APC-conjugated antibody against MHC Class I (H-2Kb) bound to OVA257-264, then visualized. The percent of H-2Kb positive cells as a percent of total live cells was determined (FIG. 3).
After 24 hours of treatment, these cells were cultured in the presence of the OVA257264 Peptide (GenScript RP10611 or Sigma S7951). After 12 hours, the cells were live-stained for two hours using a conjugated antibody targeted against an OVA257-264 peptide antigen. The cells were then fixed and imaged using the PerkinElmer Operetta CLS High-Content Analysis System.

A further test deals with RelA/P65. The test can be described thus: Nuclear RelA/P65 in reactive astrocytes. Format: cell-based, mouse. Here is the method:
For immunocytochemistry, cells were fixed with ice-cold 4% PFA for 15 minutes at room temperature, washed three times with PBS, blocked and permeabilized with 10% donkey serum and 0.1% Triton X-100 in PBS for 1 hr, and then stained with primary overnight followed by three washes with PBS, and then 1 hr incubation with Alexaflour secondary antibodies and DAPI. Stained cells were imaged using the PerkinElmer Operetta CLS High-Content Analysis System and analyzed using automated scripts in PerkinElmer Columbus Image Analysis software. Primary antibodies used were GBP2 (ProteinTech, 11854-1-AP), vimentin (BioLegend, 919101), RelA/P65 (Cell Signaling Tech, 6956), MBP (Abeam, AB7349).

Chain of HDAC3 (O15379 whole entry, species assumed): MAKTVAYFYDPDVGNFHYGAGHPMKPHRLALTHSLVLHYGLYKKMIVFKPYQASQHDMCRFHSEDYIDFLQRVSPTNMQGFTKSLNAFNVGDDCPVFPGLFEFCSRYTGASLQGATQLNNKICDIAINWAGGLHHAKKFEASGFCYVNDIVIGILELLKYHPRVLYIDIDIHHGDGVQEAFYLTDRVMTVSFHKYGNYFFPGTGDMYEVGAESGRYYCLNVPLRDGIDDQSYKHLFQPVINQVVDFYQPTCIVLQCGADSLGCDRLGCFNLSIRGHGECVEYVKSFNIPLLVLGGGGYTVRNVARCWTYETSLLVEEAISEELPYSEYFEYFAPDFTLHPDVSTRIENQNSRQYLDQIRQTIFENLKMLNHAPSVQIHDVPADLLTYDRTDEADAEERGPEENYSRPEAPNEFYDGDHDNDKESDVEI
Chain of HDAC3 (Q9Y618 395-489 partner limits assumed, species assumed): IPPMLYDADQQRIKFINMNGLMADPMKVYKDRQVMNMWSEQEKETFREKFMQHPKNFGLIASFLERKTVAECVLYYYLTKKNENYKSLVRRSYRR
Chain of HDAC1 (Q13547 whole entry, species assumed): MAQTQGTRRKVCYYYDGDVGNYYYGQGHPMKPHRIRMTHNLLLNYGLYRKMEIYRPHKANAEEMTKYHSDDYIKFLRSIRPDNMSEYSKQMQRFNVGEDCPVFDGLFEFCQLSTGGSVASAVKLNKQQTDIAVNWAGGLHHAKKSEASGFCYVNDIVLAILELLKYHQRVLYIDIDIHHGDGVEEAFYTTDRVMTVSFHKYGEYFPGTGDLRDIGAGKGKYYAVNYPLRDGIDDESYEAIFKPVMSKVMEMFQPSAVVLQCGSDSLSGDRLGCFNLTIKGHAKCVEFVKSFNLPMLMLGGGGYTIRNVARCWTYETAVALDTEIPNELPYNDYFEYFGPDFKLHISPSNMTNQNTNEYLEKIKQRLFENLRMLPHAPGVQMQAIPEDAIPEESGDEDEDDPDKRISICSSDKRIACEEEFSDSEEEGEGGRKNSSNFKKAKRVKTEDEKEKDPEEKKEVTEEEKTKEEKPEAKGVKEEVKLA
Chain of HDAC2 (Q92769 whole entry, species assumed): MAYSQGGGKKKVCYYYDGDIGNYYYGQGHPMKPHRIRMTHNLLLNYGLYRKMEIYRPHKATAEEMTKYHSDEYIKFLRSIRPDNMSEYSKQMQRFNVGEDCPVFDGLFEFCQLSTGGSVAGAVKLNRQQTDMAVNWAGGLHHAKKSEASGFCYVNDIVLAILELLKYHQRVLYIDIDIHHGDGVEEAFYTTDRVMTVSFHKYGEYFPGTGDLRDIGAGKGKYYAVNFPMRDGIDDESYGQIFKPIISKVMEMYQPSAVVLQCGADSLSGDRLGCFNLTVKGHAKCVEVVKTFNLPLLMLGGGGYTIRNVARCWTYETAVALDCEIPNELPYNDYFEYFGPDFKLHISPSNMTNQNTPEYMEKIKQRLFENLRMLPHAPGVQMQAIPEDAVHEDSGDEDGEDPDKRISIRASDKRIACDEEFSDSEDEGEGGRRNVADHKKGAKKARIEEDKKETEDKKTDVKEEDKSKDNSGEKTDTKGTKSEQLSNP
Chain of HDAC8 (Q9BY41 whole entry, species assumed): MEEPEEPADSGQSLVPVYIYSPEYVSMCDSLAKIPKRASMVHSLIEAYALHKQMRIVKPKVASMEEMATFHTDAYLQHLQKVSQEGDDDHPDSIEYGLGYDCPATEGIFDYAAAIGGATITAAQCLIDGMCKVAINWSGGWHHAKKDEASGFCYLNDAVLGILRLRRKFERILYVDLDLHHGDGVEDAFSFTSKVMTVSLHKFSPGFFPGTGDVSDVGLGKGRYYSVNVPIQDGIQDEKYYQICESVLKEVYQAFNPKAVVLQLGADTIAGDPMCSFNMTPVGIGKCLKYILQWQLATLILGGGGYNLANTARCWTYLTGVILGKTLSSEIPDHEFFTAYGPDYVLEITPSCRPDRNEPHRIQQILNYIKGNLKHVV

In the case of `CC(C)[C@H](C(=O)Nc1ccc(C(=O)NO)cc1)c1ccccc1` [AR-42], in the test with HDAC, the IC50 was 30 nM.
For `CN(C)Cc1c(C(=O)NCCOc2ccc(C(=O)NO)cc2)oc2ccccc12` [Abexinostat], the “potency to HDACs 2, 3, 6, and 10” value in the test with HDACs 2, 3, 6, and 10 is “modest potent to HDACs 2, 3, 6, and 10 and greater”.
As for `Nc1ccccc1NC(=O)c1cnccn1` [BG45], the IC50 at HDAC3 was 289 nM; on HDAC2, 2200 nM; on HDAC1, 2000 nM; at HDAC6, > 20000 nM.
Consider `O=C(/C=C/c1ccc(CN(CCO)CCc2c[nH]c3ccccc23)cc1)NO` [Dacinostat], for which the IC50 with HDAC is 32 nM.
For the molecule `CCN(CC)Cc1ccc2cc(COC(=O)Nc3ccc(C(=O)NO)cc3)ccc2c1` [Givinostat], the half-inhibitory concentration (IC50) in the test with maize HD1A was 16 nM; with maize HD1B, 7.5 nM; with maize HD2 it was 10 nM.
In the case of `CN(C)c1ccc(C(=O)NCCCCCCC(=O)NO)cc1` [M344], the IC50 in the test with HDAC is 100 nM.
For the molecule `CCCCc1nc2cc(/C=C/C(=O)NO)ccc2n1CCN(CC)CC` [Pracinostat], in the test with HDAC, the IC50 is 40 to 140 nM. Moreover, the “activity against the class III isoenzyme SIRT I” value in test [1] was “no”.
For the molecule `Cn1cc(CNCC2CCN(c3ncc(C(=O)NO)cn3)CC2)c2ccccc21` [Quisinostat], the “potency to HDACs 6 and 7” value with HDACs 6 and 7 is “selectivity against HDACs 3, 5, 8, and 9 and lowest”. The “potency to HDACs 2, 4, 10, and 11” value in the test on HDACs 2, 4, 10, and 11 is recorded as “modest potent”.
As to `O=C(CCCCCCNC(=O)c1cnc(N(c2ccccc2)c2ccccc2)nc1)NO` [Rocilinostat], in [2], the “activity against HDAC4/5/7/9/11, Sirtuin1, and Sirtuin2” value is recorded as “minimal”. In addition, the “activity against HDAC8” value on HDAC8 is reported as “slight activity”.
For the molecule `O=C(CCCCCN1C(=O)c2cccc3cccc(c23)C1=O)NO` [Scriptaid], the “effect on acetylated H4 versus H3” value in the test on acetylated H4 and H3 was “greater effect on acetylated H4 than H3”.
With `Nc1ccccc1NC(=O)c1ccc(-c2cn(CCc3ccsc3)nn2)cc1` [T247], the IC50 on HDAC3 was 55 nM. In addition, the “secretion of CCL5 by reactive astrocytes” value in the test with CCL5 is recorded as “significantly decrease”. Moreover, in test [3] (FIG. 3), the “ability of reactive astrocytes to cross present antigen on MHC Class I” value is “decrease”. Further, the “treated cells H-2 kB-OVA positive DRAs” value in [3] (about 2.5 μM) is recorded as “about 8%”; in test [3] (about 5.0 μM), “about 20%”. Also, the “nuclear RelA/P65” value was “decreases” in the test with RelA/P65 and “decreased” with RelA/P65 (listed as T24710).
In the case of Trichostatin A, the half-maximal inhibitory concentration (IC50) with HDAC was ~1.8 nM.
